Results from patent US20130131161A1, “METHODS AND COMPOSITIONS FOR CARDIOVASCULAR DISEASES AND CONDITIONS” (priority 2009, published 2013).

Test system: Human umbilical vein endothelial cells (HUVECs)
Test: eNOS activity analysis: NO, ONOO− and NO/ONOO− release from HUVECs of 50 genotyped donors in response to LA-419 (Example 2)
Assay type: cell-based
Details: for % Change ONOO− (mean ± sd) / % Change NO (mean ± sd) / % Change NO/ONOO− (mean ± sd): LA-419 5 μM vs control; for Fold difference NO production / Fold difference NO/ONOO− ratio: LA-419 5 μM/control; for % Change Ratio, % Change NO/% Change ONOO− (mean ± sd) / Net increase over control NO (mean ± sd) / Net increase over control NO/ONOO− (mean ± sd) / Net increase over control ONOO− (mean ± sd) / Peak release NO (mean ± sd) / Peak release NO/ONOO− (mean ± sd) / Peak release ONOO− (mean ± sd): LA-419 5 μM
Protocol: Concurrent measurements of NO and ONOO^− were carried out with tandem electrochemical nanosensors combined into one working unit with a total diameter of 200-500 nm (FIG. 1). Their design was based on previously developed and well-characterized chemically modified carbon-fiber technology (Malinski and Taha, 1992; Lvovich and Scheeline, 1997). Each of the nanosensors was made by depositing a sensing material on the tip of a carbon fiber (length 4-5 μm, diameter 0.2-0.5 μm). The fibers were sealed with nonconductive epoxy and electrically connected to copper wires with conductive silver epoxy. A conductive film of polymeric nickel (II) tetrakis(3-methoxy-4-hydroxyphenyl)porphyrin for the NO-sensor and polymeric film of Mn (III) [2.2]paracyclophanylporphyrin was used for the ONOO^−-sensor.
A module of NO/ONOO^− nanosensors (diameter 1-2 μm) with a platinum wire (0.1 mm) counter electrode and saturated calomel reference electrode (SCE) were applied. Differential pulse voltammetry (DPV) and amperometry were performed with a computer-based Gamry VFP600 multichannel potentiostat. DPV was used to measure the basal NO and ONOO^− concentrations, and amperometry was used to measure changes in NO and ONOO^− concentrations from its basal level with time. The DPV current at the peak potential characteristic for NO oxidation (0.65 V) and ONOO^− reduction (−0.45 V) was directly proportional to the local concentrations of these compounds in the immediate vicinity of the sensor. Linear calibration curves (current vs. concentration) were constructed for each sensor from 10 nM to 3 μM before and after measurements with aliquots of NO and ONOO^− standard solutions, respectively. The detection limit of the sensors was 1.0 nM.
The quantification of each analyte (concentration in nM) was performed using a maximum current from amperograms and standard calibration curves. A reproducibility of measurements with nanosensors is relatively high (between 5-12%). […] The sensors were slowly raised 5±2 μm from the surface of a single endothelial cell. The eNOS agonist, calcium ionophore A23187 (CaI) as well as the different drugs were then added to the surrounding media at the cell surface with a nanoinjector that was also positioned by a computer controlled-micromanipulator.
This example describes the genotype-specific response of the three major eNOS variants to 1 μM and 5 μM concentrations of LA-419. The three major genetic polymorphisms studied were the Glu298Asp variant (E298D or 894G→T) in exon 7 of […], the −786T→C variant in the promoter region, and the intron 4 polymorphism (VNTR). All of these variants have possible effects on the cardiovascular system and endothelial dysfunction. For this study, human umbilical vein endothelial cells (HUVECs) from 50 donors between 18 and 32 years of age were used.
For the analysis several analysis techniques were employed. First, the effect of genotype on NO and ONOO^− release was explored within the different concentrations of LA-419 (control, 1 μM, 5 μM), calculated as the average peak release (nmols/L) of NO, ONOO^−, and NO/ONOO^−. The effect of genotype on the net increase in NO, ONOO^−, and NO/ONOO^− for LA-419 (1 μM and 5 μM) as compared to control was also measured. In addition, an analysis was done on the effect of genotype on the % change in NO, ONOO^−, and NO/ONOO^− production for LA-419 (1 μM and 5 μM), calculated as:
% Change=[(avg. LA-419−avg. control)/(avg. control)]*100
Finally, an evaluation was undertaken concerning the effect of genotype on the production of NO, ONOO^−, and NO/ONOO^− as the fold difference of control for LA-419 (1 μM and 5 μM), calculated as:
Fold Difference=(avg. LA-419)/(avg. control)
Within each calculation technique the results were compared for statistical significance using a non-parametric ANOVA Kruskal-Wallace test or a non-parametric Mann-Whitney U test. Statistical significance was set at a p-value <0.05 in a two-tailed distribution. […]

[1] = Caucasians, exon 7 major allele homozygote
[2] = Caucasians, exon 7 minor allele carriers
[3] = exon 7 major allele homozygote, all races
[4] = exon 7 minor allele carriers, all races
[5] = HUVECs G894T + T-786C Combination of all genotypes other than G/G + T/T
[6] = HUVECs G894T + T-786C variant G/G + T/C
[7] = HUVECs G894T + T-786C variant G/G + T/T (Reference)
[8] = HUVECs G894T + T-786C variant G/T + C/C
[9] = HUVECs G894T + T-786C variant G/T + T/C
[10] = HUVECs G894T + T-786C variant G/T + T/T
[11] = HUVECs G894T + T-786C variant T/T + C/C
[12] = HUVECs G894T + T-786C variant T/T + T/C

## CC(=O)SC1COC2C(O[N+](=O)[O-])COC12 (stereo not drawn) [LA-419, S-(6-Nitro-oxi-hexahydro-furo[3,2-b]furan-3-1-il)thioacetate]
HUVECs Intron 4 variant b/a
  % Change ONOO− (mean ± sd): −19.70 (5.79) %
HUVECs Intron 4 variant b/b
  % Change NO (mean ± sd): 13.52 (6.80) %
  % Change NO/ONOO− (mean ± sd): 42.24 (17.73) %
  % Change ONOO− (mean ± sd): −19.19 (7.76) %
HUVECs Intron 4 variant c/c
  % Change NO (mean ± sd): 17.36 (0) %
  % Change NO/ONOO− (mean ± sd): 52.87 (0) %
  % Change ONOO− (mean ± sd): −22.99 (0) %
HUVECs T-786C variant C/C
  % Change NO (mean ± sd): 11.63 (5.99) %
  % Change NO/ONOO− (mean ± sd): 42.33 (13.21) %
  % Change ONOO− (mean ± sd): −21.03 (7.77) %
HUVECs T-786C variant T/C
  % Change NO (mean ± sd): 13.58 (6.82) %
  % Change NO/ONOO− (mean ± sd): 38.74 (13.67) %
  % Change ONOO− (mean ± sd): −17.73 (5.53) %
HUVECs T-786C variant T/T
  % Change NO (mean ± sd): 16.16 (5.97) %
  % Change NO/ONOO− (mean ± sd): 49.09 (17.76) %
  % Change ONOO− (mean ± sd): −20.98 (8.19) %
[1]
  Fold difference NO production: 1.19±0.07
  Fold difference NO/ONOO− ratio: 1.47±0.12
[2]
  Fold difference NO production: 1.11±0.05
  Fold difference NO/ONOO− ratio: 1.35±0.10
Caucasians, promoter major allele variant
  Fold difference NO production: 1.17±0.08
[3]
  Fold difference NO production: 1.16±0.06
  Fold difference NO/ONOO− ratio: 1.48±0.18
[4]
  Fold difference NO production: 1.13±0.06
  Fold difference NO/ONOO− ratio: 1.39±0.13
HUVEC donor Race Asian
  % Change Ratio, % Change NO/% Change ONOO− (mean ± sd): −0.50 (0)
HUVEC donor Race Black
  % Change Ratio, % Change NO/% Change ONOO− (mean ± sd): −0.79 (0.44)
HUVEC donor Race Not Reported
  % Change Ratio, % Change NO/% Change ONOO− (mean ± sd): −0.59 (0.08)
[5]
  Net increase over control NO (mean ± sd): 46.78 (22.38) nmols/L
  Net increase over control NO/ONOO− (mean ± sd): −0.87 (0.81)
  Net increase over control ONOO− (mean ± sd): −68.74 (26.87) nmols/L
  Peak release NO (mean ± sd): 398.12 (90.43) nmols/L
  Peak release NO/ONOO− (mean ± sd): 1.43 (0.54)
  Peak release ONOO− (mean ± sd): 304.95 (81.70) nmols/L
[6]
  Net increase over control NO (mean ± sd): 51.58 (25.77) nmols/L
  Net increase over control NO/ONOO− (mean ± sd): −0.78 (0.51)
  Net increase over control ONOO− (mean ± sd): −66.54 (26.77) nmols/L
  Peak release NO (mean ± sd): 397.25 (102.46) nmols/L
  Peak release NO/ONOO− (mean ± sd): 1.56 (0.60)
  Peak release ONOO− (mean ± sd): 277.33 (69.85) nmols/L
[7]
  Net increase over control NO (mean ± sd): 56.59 (19.21) nmols/L
  Net increase over control NO/ONOO− (mean ± sd): −0.88 (0.54)
  Net increase over control ONOO− (mean ± sd): −77.59 (31.16) nmols/L
  Peak release NO (mean ± sd): 399.67 (56.96) nmols/L
  Peak release NO/ONOO− (mean ± sd): 1.48 (0.48)
  Peak release ONOO− (mean ± sd): 293.93 (83.07) nmols/L
[8]
  Net increase over control NO (mean ± sd): 46.00 (0) nmols/L
  Net increase over control NO/ONOO− (mean ± sd): −1.01 (0)
  Net increase over control ONOO− (mean ± sd): −45.67 (0) nmols/L
  Peak release NO (mean ± sd): 434.33 (0) nmols/L
  Peak release NO/ONOO− (mean ± sd): 1.72 (0)
  Peak release ONOO− (mean ± sd): 252.67 (0) nmols/L
[9]
  Net increase over control NO (mean ± sd): 43.72 (19.86) nmols/L
  Net increase over control NO/ONOO− (mean ± sd): −0.83 (0.84)
  Net increase over control ONOO− (mean ± sd): −65.59 (20.60) nmols/L
  Peak release NO (mean ± sd): 387.90 (86.10) nmols/L
  Peak release NO/ONOO− (mean ± sd): 1.34 (0.54)
  Peak release ONOO− (mean ± sd): 318.33 (82.55) nmols/L
[10]
  Net increase over control NO (mean ± sd): 52.83 (20.89) nmols/L
  Net increase over control NO/ONOO− (mean ± sd): −1.29 (1.15)
  Net increase over control ONOO− (mean ± sd): −71.50 (46.74) nmols/L
  Peak release NO (mean ± sd): 433.58 (65.75) nmols/L
  Peak release NO/ONOO− (mean ± sd): 1.71 (0.21)
  Peak release ONOO− (mean ± sd): 252.92 (13.69) nmols/L
[11]
  Net increase over control NO (mean ± sd): 35.33 (20.27) nmols/L
  Net increase over control NO/ONOO− (mean ± sd): −0.36 (0.18)
  Net increase over control ONOO− (mean ± sd): −94.89 (10.87) nmols/L
  Peak release NO (mean ± sd): 348.78 (92.48) nmols/L
  Peak release NO/ONOO− (mean ± sd): 1.19 (0.80)
  Peak release ONOO− (mean ± sd): 345.56 (123.07) nmols/L
[12]
  Net increase over control NO (mean ± sd): 53.00 (50.91) nmols/L
  Net increase over control NO/ONOO− (mean ± sd): −1.41 (1.74)
  Net increase over control ONOO− (mean ± sd): −64.83 (44.08) nmols/L
  Peak release NO (mean ± sd): 453.00 (178.19) nmols/L
  Peak release NO/ONOO− (mean ± sd): 1.23 (0.75)
  Peak release ONOO− (mean ± sd): 397.67 (96.64) nmols/L
HUVECs G894T variant G/G
  % Change Ratio, % Change NO/% Change ONOO− (mean ± sd): −0.82 (0.40)
  Net increase over control NO (mean ± sd): 55.05 (21.03) nmols/L
  Net increase over control NO/ONOO− (mean ± sd): −0.85 (0.52)
  Net increase over control ONOO− (mean ± sd): −74.19 (29.80) nmols/L
  Peak release NO (mean ± sd): 398.92 (71.74) nmols/L
  Peak release NO/ONOO− (mean ± sd): 1.50 (0.51)
